Measurements as given in patent US11028075B2, “Therapeutic compounds and methods of use thereof” (GENENTECH, INC., priority 2018, dated 2021).
Counter-ions that a name gives are not always drawn.

Experiments:
hNav1.7 [1] = target: T1, hNav1.7 (Homo sapiens (Human), UniProt Q15858); test: Tritiated compound binding to membranes from cells heterologously expressing hNav1.7 and the β1 subunit (Nav1.7 LBA); settings: competitive binding vs [3H]compound, membranes with hNav1.7 and β1 subunit; read-out: Nav1.7 LBA EVO IC50
In short: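 Membranes from cells expressing hNav1.7 with β1 were incubated at room temperature with a tritiated competitive Nav1.7 inhibitor plus test compound in 100 mM NaCl, 20 mM Tris pH 7.4, 0.01% BSA; nonspecific binding was set with 1 μM unlabeled compound. Incubation was 18 h with […] radioligand, or 3 h with […]. Bound ligand was filtered and counted, and IC50 came from a 4-parameter fit.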
Target sequence in this assay (Q15858 whole entry, looked up): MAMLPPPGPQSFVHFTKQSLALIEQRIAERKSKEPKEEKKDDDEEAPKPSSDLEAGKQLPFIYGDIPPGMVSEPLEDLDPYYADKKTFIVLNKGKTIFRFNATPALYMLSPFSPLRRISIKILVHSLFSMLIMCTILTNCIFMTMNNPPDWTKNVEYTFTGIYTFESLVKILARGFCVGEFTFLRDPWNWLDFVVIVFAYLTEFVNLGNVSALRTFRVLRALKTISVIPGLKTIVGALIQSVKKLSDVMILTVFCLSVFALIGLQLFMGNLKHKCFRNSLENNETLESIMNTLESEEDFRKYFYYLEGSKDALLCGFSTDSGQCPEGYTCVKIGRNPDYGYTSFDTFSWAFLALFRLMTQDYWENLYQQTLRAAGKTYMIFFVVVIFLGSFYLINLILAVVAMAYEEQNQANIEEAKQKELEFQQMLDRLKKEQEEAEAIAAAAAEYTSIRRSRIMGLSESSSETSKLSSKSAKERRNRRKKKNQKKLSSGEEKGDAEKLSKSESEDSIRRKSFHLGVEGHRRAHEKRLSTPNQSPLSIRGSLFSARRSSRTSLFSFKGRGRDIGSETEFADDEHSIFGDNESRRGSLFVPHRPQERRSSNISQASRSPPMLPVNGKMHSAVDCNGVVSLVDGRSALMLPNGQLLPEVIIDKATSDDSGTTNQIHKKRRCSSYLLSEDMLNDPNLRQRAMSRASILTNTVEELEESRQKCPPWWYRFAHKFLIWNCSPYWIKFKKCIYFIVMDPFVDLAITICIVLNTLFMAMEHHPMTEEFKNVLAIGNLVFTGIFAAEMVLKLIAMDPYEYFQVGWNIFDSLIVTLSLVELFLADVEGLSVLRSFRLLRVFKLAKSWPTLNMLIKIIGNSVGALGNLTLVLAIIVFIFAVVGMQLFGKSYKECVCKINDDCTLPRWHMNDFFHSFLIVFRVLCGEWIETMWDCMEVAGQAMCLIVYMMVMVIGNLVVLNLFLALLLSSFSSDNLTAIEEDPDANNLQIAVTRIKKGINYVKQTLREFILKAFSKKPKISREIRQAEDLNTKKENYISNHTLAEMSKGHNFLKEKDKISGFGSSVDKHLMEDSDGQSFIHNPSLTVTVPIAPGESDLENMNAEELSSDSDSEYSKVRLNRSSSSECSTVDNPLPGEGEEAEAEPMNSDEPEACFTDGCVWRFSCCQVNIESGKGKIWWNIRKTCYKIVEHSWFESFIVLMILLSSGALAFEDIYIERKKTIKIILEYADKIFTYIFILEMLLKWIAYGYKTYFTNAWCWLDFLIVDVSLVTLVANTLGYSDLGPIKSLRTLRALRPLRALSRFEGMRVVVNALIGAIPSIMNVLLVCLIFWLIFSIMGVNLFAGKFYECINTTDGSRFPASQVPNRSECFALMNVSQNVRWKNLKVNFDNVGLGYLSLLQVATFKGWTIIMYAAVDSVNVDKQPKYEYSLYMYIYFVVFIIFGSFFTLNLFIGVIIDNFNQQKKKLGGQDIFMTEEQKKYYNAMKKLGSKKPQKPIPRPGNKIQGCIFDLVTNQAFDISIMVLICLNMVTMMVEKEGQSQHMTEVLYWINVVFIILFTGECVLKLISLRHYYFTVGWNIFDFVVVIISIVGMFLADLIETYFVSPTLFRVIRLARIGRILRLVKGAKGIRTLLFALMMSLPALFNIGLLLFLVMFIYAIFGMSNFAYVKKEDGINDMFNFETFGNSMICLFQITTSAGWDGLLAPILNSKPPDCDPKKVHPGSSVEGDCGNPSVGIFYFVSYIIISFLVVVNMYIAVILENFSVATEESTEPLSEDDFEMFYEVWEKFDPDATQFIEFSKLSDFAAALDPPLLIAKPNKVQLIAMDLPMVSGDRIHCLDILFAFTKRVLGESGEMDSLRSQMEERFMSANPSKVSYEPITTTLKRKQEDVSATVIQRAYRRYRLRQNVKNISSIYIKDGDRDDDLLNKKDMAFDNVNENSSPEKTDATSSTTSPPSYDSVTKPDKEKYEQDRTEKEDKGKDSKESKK
Target sequence in this assay (Q07699 whole entry partner, looked up): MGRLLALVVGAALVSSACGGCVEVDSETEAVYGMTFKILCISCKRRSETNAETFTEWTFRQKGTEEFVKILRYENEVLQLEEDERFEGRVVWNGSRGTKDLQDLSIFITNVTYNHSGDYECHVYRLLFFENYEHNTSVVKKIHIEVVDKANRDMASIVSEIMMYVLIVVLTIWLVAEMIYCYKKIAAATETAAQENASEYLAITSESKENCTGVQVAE

hNav1.7 [2] = target: T1, hNav1.7; test: Electrophysiological assay (EP), voltage clamp on Syncropatch 384PE, CHO cells stably expressing Nav1.7; format: cell-based; settings: holding potential −50 mV, 7.5 min compound incubation, read-out: EP_SP hNav1.7 EVO IC50
In short: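 Whole-cell automated patch clamp was run on CHO cells stably expressing human Nav1.7 cDNA, with internal solution CsCl/EGTA pH 7.2, external solution 80 mM NaCl pH 7.4, and 0.1% Pluronic F-127. From a −50 mV holding potential: −10 mV for 10 ms, −150 mV for 20 ms, then −10 mV for 10 ms, where current was measured. Inhibition was taken after 7.5 min compound incubation, with TTX added for full block.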
Target sequence in this assay (Q15858 other isoform, or with tags, fused parts or gaps): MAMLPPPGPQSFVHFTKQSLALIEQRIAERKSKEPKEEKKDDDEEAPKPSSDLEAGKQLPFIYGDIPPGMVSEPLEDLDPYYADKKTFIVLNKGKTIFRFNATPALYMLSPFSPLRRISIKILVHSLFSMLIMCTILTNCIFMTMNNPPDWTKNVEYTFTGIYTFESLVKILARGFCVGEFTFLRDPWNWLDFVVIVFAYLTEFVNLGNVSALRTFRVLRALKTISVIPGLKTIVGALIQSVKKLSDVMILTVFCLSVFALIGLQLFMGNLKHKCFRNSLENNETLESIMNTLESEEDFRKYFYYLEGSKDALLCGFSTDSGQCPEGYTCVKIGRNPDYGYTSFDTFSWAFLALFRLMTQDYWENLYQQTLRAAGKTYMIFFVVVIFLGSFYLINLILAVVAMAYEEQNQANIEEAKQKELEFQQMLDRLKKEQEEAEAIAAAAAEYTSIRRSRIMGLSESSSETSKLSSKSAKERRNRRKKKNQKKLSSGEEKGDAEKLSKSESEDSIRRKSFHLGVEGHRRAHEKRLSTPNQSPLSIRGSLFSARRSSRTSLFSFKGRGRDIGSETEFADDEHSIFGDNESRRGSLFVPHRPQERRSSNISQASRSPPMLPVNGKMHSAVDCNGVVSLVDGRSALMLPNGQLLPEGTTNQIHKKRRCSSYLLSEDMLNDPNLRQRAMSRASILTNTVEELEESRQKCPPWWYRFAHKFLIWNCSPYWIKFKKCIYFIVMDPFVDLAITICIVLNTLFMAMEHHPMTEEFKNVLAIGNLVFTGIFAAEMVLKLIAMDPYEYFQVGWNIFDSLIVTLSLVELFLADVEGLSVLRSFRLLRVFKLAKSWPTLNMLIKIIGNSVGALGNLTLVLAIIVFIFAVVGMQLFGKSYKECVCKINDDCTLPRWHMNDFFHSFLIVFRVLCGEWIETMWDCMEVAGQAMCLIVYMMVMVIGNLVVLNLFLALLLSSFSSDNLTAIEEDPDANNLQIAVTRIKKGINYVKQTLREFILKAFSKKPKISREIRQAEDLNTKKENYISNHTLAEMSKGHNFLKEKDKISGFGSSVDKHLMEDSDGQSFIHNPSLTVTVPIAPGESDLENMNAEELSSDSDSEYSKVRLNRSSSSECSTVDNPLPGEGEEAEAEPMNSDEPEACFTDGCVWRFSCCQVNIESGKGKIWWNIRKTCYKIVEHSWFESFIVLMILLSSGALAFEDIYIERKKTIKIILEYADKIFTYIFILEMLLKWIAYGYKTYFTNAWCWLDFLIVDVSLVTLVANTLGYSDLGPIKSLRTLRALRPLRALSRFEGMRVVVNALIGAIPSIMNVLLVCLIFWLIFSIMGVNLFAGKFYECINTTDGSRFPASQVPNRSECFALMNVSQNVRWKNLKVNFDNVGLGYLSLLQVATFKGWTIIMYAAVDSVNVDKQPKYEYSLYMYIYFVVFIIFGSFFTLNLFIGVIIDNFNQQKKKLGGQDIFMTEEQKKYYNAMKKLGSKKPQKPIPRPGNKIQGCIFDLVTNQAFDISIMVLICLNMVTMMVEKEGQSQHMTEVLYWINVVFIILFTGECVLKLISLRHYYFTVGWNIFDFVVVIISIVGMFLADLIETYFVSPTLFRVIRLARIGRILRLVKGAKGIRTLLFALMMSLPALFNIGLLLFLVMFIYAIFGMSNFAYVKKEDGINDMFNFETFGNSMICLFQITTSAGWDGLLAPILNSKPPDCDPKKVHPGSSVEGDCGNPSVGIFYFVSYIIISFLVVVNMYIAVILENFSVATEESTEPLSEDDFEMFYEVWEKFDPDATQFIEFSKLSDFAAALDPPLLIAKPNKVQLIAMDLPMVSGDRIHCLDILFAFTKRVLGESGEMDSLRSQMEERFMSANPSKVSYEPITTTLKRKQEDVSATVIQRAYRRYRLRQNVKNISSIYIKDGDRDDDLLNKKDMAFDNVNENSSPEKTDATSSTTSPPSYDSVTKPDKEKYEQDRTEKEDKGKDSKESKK

SMILES	IC50 (hNav1.7 [1]) [nM]	IC50 (hNav1.7 [2]) [nM]
O=S(=O)(Nc1ccncn1)c1cc(Cl)c(O[C@H]2CC[C@H](c3cccc(OC(F)(F)F)c3)C[C@@H]2N2CCCC2)cc1F [Example 64, 5-chloro-2-fluoro-N-(pyrimidin-4-yl)-4-(((1S,2S,4S)-2-(pyrrolidin-1-yl)-4-(3-(trifluoromethoxy)-phenyl)cyclohexyl)oxy)benzenesulfonamide formate]	1.37	0.554
CN(C)[C@H]1C[C@@H](c2cc(Cl)ccc2Cl)CC[C@@H]1Oc1cc(F)c(S(=O)(=O)Nc2ccncn2)cc1Cl [Example 65, 5-chloro-4-(((1S,2S,4S)-4-(2,5-dichlorophenyl)-2-(dimethylamino)cyclohexyl)oxy)-2-fluoro-N-(pyrimidin-4-yl)benzenesulfonamide formate]	5.41	1.03
CN(CCO)[C@H]1C[C@@H](c2cccc(C(F)(F)F)c2)CC[C@@H]1Oc1cc(F)c(S(=O)(=O)Nc2ccncn2)cc1Cl [Example 66, 5-chloro-2-fluoro-4-(((1S,2S,4S)-2-((2-hydroxyethyl)(methyl)amino)-4-(3-(trifluoromethyl)-phenyl)cyclohexyl)oxy)-N-(pyrimidin-4-yl)benzenesulfonamide formate]	2.59	0.732
CN(C)[C@H]1C[C@@H](c2ccc(Cl)c(Cl)c2)CC[C@@H]1Oc1cc(F)c(S(=O)(=O)Nc2ccncn2)cc1Cl [Example 67, 5-chloro-4-(((1S,2S,4S)-4-(3,4-dichlorophenyl)-2-(dimethylamino)cyclohexyl)oxy)-2-fluoro-N-(pyrimidin-4-yl)benzenesulfonamide formate]	3.83	0.325
CCN[C@H]1C[C@@H](c2cccc(C(F)(F)F)c2)CC[C@@H]1Oc1cc(F)c(S(=O)(=O)Nc2ccncn2)cc1Cl [Example 68, 5-chloro-4-(((1S,2S,4S)-2-(ethylamino)-4-(3-(trifluoromethyl)phenyl)cyclohexyl)oxy)-2-fluoro-N-(pyrimidin-4-yl)benzenesulfonamide formate]	1.69	0.737
CNCCN(C)[C@H]1C[C@@H](c2cccc(C(F)(F)F)c2)CC[C@@H]1Oc1cc(F)c(S(=O)(=O)Nc2ccncn2)cc1Cl [Example 69, 5-chloro-2-fluoro-4-(((1S,2S,4S)-2-(methyl(2-(methylamino)ethyl)amino)-4-(3-(trifluoromethyl)phenyl)cyclohexyl)oxy)-N-(pyrimidin-4-yl)benzenesulfonamide formate]	0.474	0.173
O=S(=O)(Nc1ccncn1)c1cc(F)c(N[C@H]2CC[C@H](c3cccc(C(F)(F)F)c3F)C[C@@H]2N2CCCC2)cc1F [Example 70, 2,5-difluoro-4-(((1S,2S,4S)-4-(2-fluoro-3-(trifluoromethyl)phenyl)-2-(pyrrolidin-1-yl)cyclohexyl)-amino)-N-(pyrimidin-4-yl)benzenesulfonamide hydrochloride]	7.22	0.966
CN(C)[C@H]1CN(c2cc(C(F)(F)F)ccn2)CC[C@@H]1Nc1cc(F)c(S(=O)(=O)Nc2ccncn2)cc1Cl [Example 71, 5-Chloro-4-(((3S,4S)-3-(dimethylamino)-1-(4-(trifluoromethyl)pyridin-2-yl)piperidin-4-yl)amino)-2-fluoro-N-(pyrimidin-4-yl)benzenesulfonamide formate]	169	7.04
CN(C)[C@H]1CN(c2cc(C(F)(F)F)ccn2)CC[C@@H]1Nc1ccc(S(=O)(=O)Nc2ccncn2)c(F)c1 [Example 72, 4-(((3S,4S)-3-(Dimethylamino)-1-(4-(trifluoromethyl)pyridin-2-yl)piperidin-4-yl)amino)-2-fluoro-N-(pyrimidin-4-yl)benzenesulfonamide formate]	274	23.1
CN(C)[C@H]1CN(S(=O)(=O)c2cccc(C(F)(F)F)c2)CC[C@@H]1Nc1cc(F)c(S(=O)(=O)Nc2ccncn2)cc1Cl [Example 73, 5-Chloro-4-(((3S,4S)-3-(dimethylamino)-1-((3-(trifluoromethyl)phenyl)sulfonyl)piperidin-4-yl)amino)-2-fluoro-N-(pyrimidin-4-yl)benzenesulfonamide formate]	82.3	3.34
CN(C)[C@H]1C[C@@H](c2cc(C(F)(F)F)ccc2F)CC[C@@H]1Oc1cc(F)c(S(=O)(=O)Nc2ccncn2)cc1Cl [Example 74, 5-chloro-4-(((1S,2S,4S)-2-(dimethylamino)-4-(2-fluoro-5-(trifluoromethyl)phenyl)cyclohexyl)oxy)-2-fluoro-N-(pyrimidin-4-yl)benzenesulfonamide]	4.01	1.85
CN(C)[C@H]1C[C@@H](c2cccc(Cl)c2Cl)CC[C@@H]1Oc1cc(F)c(S(=O)(=O)Nc2ccncn2)cc1Cl [Example 75, 5-chloro-4-(((1S,2S,4S)-4-(2,3-dichlorophenyl)-2-(dimethylamino)cyclohexyl)oxy)-2-fluoro-N-(pyrimidin-4-yl)benzenesulfonamide]	50.6	2.62
CN(C)[C@H]1C[C@@H](c2ccnc(C(F)(F)F)c2)CC[C@@H]1Oc1cc(F)c(S(=O)(=O)Nc2ccncn2)cc1Cl [Example 76, 5-chloro-4-(((1S,2S,4S)-2-(dimethylamino)-4-(2-(trifluoromethyl)pyridin-4-yl)cyclohexyl)oxy)-2-fluoro-N-(pyrimidin-4-yl)benzenesulfonamide formate]	78.8	8.61
CN(C)[C@H]1C[C@@H](c2cccc(C(F)(F)F)c2)CC[C@@H]1Oc1ccc(S(=O)(=O)Nc2ccncn2)cc1F [Example 79, 4-(((1S,2S,4S)-2-(Dimethylamino)-4-(3-(trifluoromethyl)phenyl)cyclohexyl)oxy)-3-fluoro-N-(pyrimidin-4-yl)benzenesulfonamide]	223	18
CN1CC(N(C)[C@H]2C[C@@H](c3cccc(C(F)(F)F)c3)CC[C@@H]2Oc2cc(F)c(S(=O)(=O)Nc3ccncn3)cc2Cl)C1 [Example 81, 5-chloro-2-fluoro-4-(((1S,2S,4S)-2-(methyl(1-methylazetidin-3-yl)amino)-4-(3-(trifluoromethyl)phenyl)cyclohexyl)oxy)-N-(pyrimidin-4-yl)benzenesulfonamide formate]	0.661	0.334
CN(C)[C@H]1C[C@@H](c2cc(Cl)cc(Cl)c2)CC[C@@H]1Oc1cc(F)c(S(=O)(=O)Nc2ccncn2)cc1Cl [Example 82, 5-chloro-4-(((1S,2S,4S)-4-(3,5-dichlorophenyl)-2-(dimethylamino)cyclohexyl)oxy)-2-fluoro-N-(pyrimidin-4-yl)benzenesulfonamide formate]	1.57	0.355
CN(C)[C@H]1C[C@@H](c2cccc(C3CCOCC3)c2)CC[C@@H]1Oc1cc(F)c(S(=O)(=O)Nc2ccncn2)cc1Cl [Example 83]	38.6	6.36
O=S(=O)(Nc1ccncn1)c1cc(F)c(N[C@H]2CC[C@H](c3ccc(F)c(C(F)(F)F)c3)C[C@@H]2N2CCCC2)cc1F [Example 84, 2,5-difluoro-4-(((1S,2S,4S)-4-(4-fluoro-3-(trifluoromethyl)phenyl)-2-(pyrrolidin-1-yl)cyclohexyl)-amino)-N-(pyrimidin-4-yl)benzenesulfonamide]	0.877	0.52
